{"source": "paper PMC4131466", "about": "“Antidepressant Fluoxetine Modulates the In Vitro Inhibitory Activity of Buffalo Brain Cystatin: A Thermodynamic Study Using UV and Fluorescence Techniques” (Biotechnology Research International, 2014)", "target": "T1, buffalo brain cystatin (BC)", "T1 construct": "gene CST3", "experiment": "intrinsic fluorescence quenching, log-log plot", "type": "binding, Bubalus bubalis", "settings": "1 μM BC, 50 mM sodium phosphate pH 7.5, 298 K, 30 min incubation, excitation 280 nm; n = 0.79", "excerpt": "intrinsic fluorescence quenching, log-log plot on buffalo brain cystatin (BC)", "data": [{"compound": "CNCCC(Oc1ccc(C(F)(F)F)cc1)c1ccccc1", "note": "(stereo not shown) [Fluoxetine]", "values": [{"measurement": "K (binding constant) mol^-1", "value": "5.0317e+06", "unit": "mol⁻¹"}]}]}
